# From patent publication US12098176B2, “Keratin BD-4, preparation method, and pharmaceutical composition and use thereof” (Institute of Materia Medica, Chinese Academy of Medical …, priority 2019, dated 2024)
# Structures can show the parent of a compound that is named as a salt. Marks after values point to notes of the source that are not given here.
# Assays:
# [1] = tested on: yeast-induced fever model in rats; assay: Yeast-induced fever model in SD rats; assay type: in vivo, rat
# Method: Experimental example 1 The pharmacodynamic test of protein BD-4 (the protein in Example 4) on the fever model of SD rats induced by yeast
# • Normal control group; • Model group: yeast fever model; • Positive control group: Aspirin 300 mg/kg group; • Protein BD-4, 10 mg/kg group, 50 mg/kg group. Method:
# (§1) Preparation of experimental animals: After the experimental animals adapt to the experimental environment (temperature 22° C.±2° C., relative humidity 50%±2%) for 1 day. Pre-adaptation to measure rectal temperature at 8:00 and 15:00, Rats were fasted and water was taken freely 12 h before experiment. let the animal to empty its feces before measuring the rectal temperature. Apply petroleum jelly to the electronic thermometer probe before each temperature measurement. Insert the rat rectum 2 cm (can be marked at 2 cm to ensure that the depth of each insertion is consistent), and record the body temperature after the reading is stable.
# (§2) Subcutaneous injection of dry yeast to replicate rat fever model: The body temperature of the rats was measured before modeling. Qualified rats with a body temperature of 36.2-37.3° C. were selected and randomly divided into groups with 8 rats in each group. After oral administration of aspirin and different doses of protein BD-4, 20% yeast suspension (10 ml/kg) was injected subcutaneously immediately, and the normal control group was injected intraperitoneally with an equal volume of normal saline. the rats' body temperature was monitored after 2 hours for a total of 8 hours.
# (§3) According to the body temperature measured at each time point on the day of the experiment, calculate the mean, standard deviation and standard error of the body temperature of each group of rats. The data of each group was compared with TTEST, and P<0.05 was considered as a significant difference.
# [2] = tested on: lipopolysaccharide (LPS) induced fever in rats; assay: Lipopolysaccharide (LPS) induced fever in SD rats; assay type: in vivo, rat
# Method: Experimental example 2 The pharmacodynamic test of protein BD-4 (Example 4 protein) on lipopolysaccharide (LPS) induced fever in SD rats.
# Experiment Grouping: • Model group: lipopolysaccharide fever model; • Positive control group: Aspirin 300 mg/kg group, • Protein BD-4, 10 mg/kg group, 50 mg/kg group. Method: the method of intraperitoneal injection of Lipopolysaccharide to create fever model in rats.
# as §1, with “experiment. before the experiment,” for “experiment.”
# as §2, with “Intraperitoneal” for “Subcutaneous”, “lipopolysaccharide” for “dry yeast”, “lipopolysaccharide (20 μg/kg, 2” for “20% yeast suspension (10”, “intraperitoneally” for “subcutaneously”
# as §3
# [3] = tested on: acetic acid writhing of ICR mice; assay: Acetic acid writhing test in ICR mice; assay type: in vivo, mouse
# Method: Experimental example 7 The pharmacodynamic test of protein BD-4 (Example 4 protein) on acetic acid writhing in ICR mice. Animals: male ICR mice; Drugs and reagents: aspirin, physiological saline, glacial acetic acid, protein BD-4. Experiment Grouping:
# One day after the experimental animals adapt to the environment, Aspirin 300 mg/kg, protein BD-4 50 mg/kg, 200 mg/kg were given orally one hour in advance, and the administration volume was 10 ml/kg; Then, 0.6% acetic acid solution was injected into the abdominal cavity, and the latency period (seconds) and frequency of writhing in the animal was observed within 15 minutes.
# Calculate the mean and standard error of the data in each group. Compared with the model group by TTEST, P<0.05 was considered as statistically different.
# 0.6% acetic acid solution was injected into the abdominal cavity of mice, which caused deep and large area and long-term painful stimulation, causing the mice to writhe (the abdomen was contracted into an “S” shape, the trunk and hind legs were stretched, the buttocks were raised and the hips Row). The incubation time and the number of times the mice began to writhe were used as the pain response index to determine whether the test sample had analgesic effect. […] Compared with the model group, P<0.05, which is statistically significant.
# [4] = tested on: PTZ-induced epilepsy in mice; assay: Pentylenetetrazole (PTZ) induced epilepsy in mice; assay type: in vivo, mouse; settings: Retigabine 60 mg/kg
# Method: Experiment Grouping: • Model group; • Retigabine 60 mg/kg group; • Protein BD-4, 50 mg/kg group, 200 mg/kg group; Method: Model Preparation and Administration:
# Administer once in the afternoon the day before modeling, On the day of modeling, intraperitoneal injection of PTZ-65 mg/kg (modeling agent) 1 hour after gavage of the test drug, the positive drug can be administered once half an hour before modeling. Continue to observe for 15 minutes after injection of PTZ.
# Observation index: 1) Seizure condition: Onset time of grade III to grade VI; 2) Death situation
# Onset level: Refer to Racine grading standard: Level 0: No response; Grade I: manifested as twitching of facial muscles or the corners of the mouth; Level II: Can nod; Grade III: twitching of one limb; Grade IV: Rigidity or body twitching; Grade V: Generalized epilepsy (Generalized tonic seizures).
# Count the number of seizures and deaths in each group of mice in the experiment; Level III and IV incubation period. The incubation period of mice that have not attacked to grade IV is recorded as the maximum of 900 seconds. Chi-square test was used for statistics of the number of cases. Calculate the mean and standard error of the incubation period. Use TTEST to compare the model group with other groups, and P<0.05 is considered as a significant difference.
# [5] = tested on: mice cough induced by ammonia water; assay: Antitussive test, cough induced by ammonia water in mice; assay type: in vivo, mouse
# Method: Experimental example 6 The effect of protein BD-4 (Example 4 protein) on the antitussive effect of the cough induced by ammonia water in mice. Animals: male ICR mice; Drugs and reagents: dextromethorphan hydrobromide, ammonia, 0.2% CMC-Na, protein BD-4; Apparatus: Compressed nebulizer (403T type), balance (XS105DU type). Experiment Grouping: • Solvent control group; • Dextromethorphan 15 mg/kg group; • Protein BD-4, 20 mg/kg group, 50 mg/kg group. Method: Model Preparation and Administration:
# Dextromethorphan and different doses of protein BD-4 (administration volume 10 ml/kg) were given orally in groups, and the solvent control group was given the same volume of distilled water. One hour later, it was put into a sealed box and atomized 10% ammonia water for 10 seconds, and then observed and recorded the incubation period of cough in mice and the number of coughs in 2 minutes.
# Record the time point of oral administration, the time point of atomization experiment, the incubation period of mice cough and the number of coughs within 2 minutes, respectively. The incubation period of cough refers to the number of seconds from the start of the atomization of ammonia to the occurrence of cough. The performance of coughing in mice is based on contraction of their abdominal muscles (breast contraction) and opening their mouths at the same time. Calculate the mean and standard error of each group of data, use TTEST to compare the model group with other groups, and P<0.05 is considered as a significant difference.
# [6] = tested on: PLO-induced epilepsy in mice; assay: Pilocarpine (PLO) induced convulsive epilepsy in mice; assay type: in vivo, mouse; settings: Diazepam 2 mg/kg
# Method: Experimental example 3 The pharmacodynamic test of protein BD-4 (Example 4 protein) on convulsive epilepsy in mice caused by the convulsion agent Pilocarpine (PLO)
# Model group: • Diazepam (Diazepam) 2 mg/kg group; • Protein BD-4, 50 mg/kg group, 200 mg/kg group. Method: Model Preparation and Administration:
# The drug was administered once in the afternoon the day before modeling, PLO-225 mg/kg (modeling agent) was injected intraperitoneally 1 hour after the test drug was given to the stomach on the day of modeling. And positive drug can be administered once 20 minutes before modeling. Observe for 30 minutes after PLO injection.
# Observation indicators: 1) Seizure situation: the time of seizures from grade II to grade IV; 2) the time to death.
# Attack level: Refer to Racine grading standard: Level 0: No response; Grade I: manifested as twitching of facial muscles or the corners of the mouth; Level II: can nod; Level III: Twitching of one limb; Grade IV: rigidity or body twitching; Grade V: generalized epilepsy (generalized tonic seizures).
# Count the number of grade IV seizures and deaths in each group of mice in the experiment; Level II, III and IV incubation period. […] Chi-square test was used for statistics of the number of cases. The mean value and standard error of the incubation period were calculated, and TTEST was used to compare the model group with other groups. P<0.05 was considered as a significant difference.
# [7] = aspirin 300 mg/kg oral, 0.6% acetic acid i.p., within 15 minutes
# [8] = dextromethorphan 15 mg/kg, P<0.05
compound,measurement,setting,value
"CC(=O)Oc1ccccc1C(=O)O [aspirin, reference compound]",Body temperature 2 hours after modeling,"[1]; aspirin 300 mg/kg oral, 2 h after 20% yeast s.c.",36.5 ± 0.1 °C
same,Body temperature 4 hours after modeling,"[1]; aspirin 300 mg/kg oral, 4 h after 20% yeast s.c.",36.9 ± 0.1 °C
same,Body temperature 6 hours after modeling,"[1]; aspirin 300 mg/kg oral, 6 h after 20% yeast s.c.",37.0 ± 0.1 °C
same,Body temperature 8 hours after modeling,"[1]; aspirin 300 mg/kg oral, 8 h after 20% yeast s.c.",37.2 ± 0.1 °C
same,Effect on increase in body temperature of model rats,"[1]; aspirin 300 mg/kg, 4, 6 and 8 hours after modeling, vs model group P<0.05",effectively inhibit the increase in body temperature
same,Body temperature 2 hours after modeling,"[2]; aspirin 300 mg/kg oral, 2 h after LPS 20 μg/kg i.p.",36.9 ± 0.2 °C
same,Body temperature 4 hours after modeling,"[2]; aspirin 300 mg/kg oral, 4 h after LPS 20 μg/kg i.p.",37.0 ± 0.1 °C
same,Body temperature 6 hours after modeling,"[2]; aspirin 300 mg/kg oral, 6 h after LPS 20 μg/kg i.p.",36.9 ± 0.1 °C
same,Body temperature 8 hours after modeling,"[2]; aspirin 300 mg/kg oral, 8 h after LPS 20 μg/kg i.p.",36.9 ± 0.1 °C
same,Effect on increase in body temperature of model rats,"[2]; aspirin 300 mg/kg, 2, 4, 6 and 8 hours after modeling, vs model group P<0.05",effectively inhibit the increase in body temperature
same,Frequency of writhing vs model group,"[3]; Aspirin 300 mg/kg, P<0.05",reduce the frequency of writhing
same,Incubation period of writhing vs model group,"[3]; Aspirin 300 mg/kg, P<0.05",significantly delay the incubation period of writhing
same,Number of twists,[3]; [7],16.7 ± 2.6 times
same,Writhing latency,[3]; [7],301.0 ± 30.4 s
"CCOC(=O)Nc1ccc(NCc2ccc(F)cc2)cc1N [Retigabine, reference compound]",Grade IV seizure rate,"[4]; 10 mice, PTZ 65 mg/kg i.p.",10%**
same,mortality rate,"[4]; 10 mice, PTZ 65 mg/kg i.p.",0
same,Level III onset latency,[4]; mean ± SEM,106 ± 12 s
same,Grade IV onset latency,"[4]; mean ± SEM, no grade IV attack recorded as 900 s",819 ± 81 s
same,Number of deaths,"[4]; of 10 mice, PTZ 65 mg/kg i.p.",0
same,Number of Grade IV cases,"[4]; of 10 mice, PTZ 65 mg/kg i.p., 15 min observation",1**
"COc1ccc2c(c1)[C@]13CCCC[C@@H]1[C@H](C2)N(C)CC3 [Dextromethorphan, dextromethorphan hydrobromide, reference compound]",Incubation period,"[5]; Dextromethorphan 15 mg/kg oral, cough latency, X ± SEM",39.2 ± 2.8 s
same,Number of coughs,"[5]; Dextromethorphan 15 mg/kg oral, within 2 minutes, X ± SEM",40.2 ± 3.5
same,Cough incubation period vs solvent control group,[5]; [8],significant improvement
same,Number of coughs vs solvent control group,[5]; [8],significant improvement
"CN1C(=O)CN=C(c2ccccc2)c2cc(Cl)ccc21 [Diazepam, reference compound]",Grade IV seizure rate,"[6]; 10 mice, PLO 225 mg/kg i.p.",0**
same,mortality rate,"[6]; 10 mice, PLO 225 mg/kg i.p.",0
same,Level II onset incubation period,[6]; mean ± SEM,118 ± 9 s
same,Level III onset incubation period,[6]; mean ± SEM,172 ± 13 s
same,Level IV onset incubation period,"[6]; mean ± SEM, no grade IV attack recorded as 1800 s",1800 ± 0 s
same,Number of deaths,"[6]; of 10 mice, PLO 225 mg/kg i.p.",0
same,Number of Grade IV cases,"[6]; of 10 mice, PLO 225 mg/kg i.p., 30 min observation",0**
